We go through 25 compounds from patent publication US10654847B2, “Substituted 2-(4-heterocyclylbenzyl)isoindolin-1-one analogs as positive allosteric modulators of the muscarinic acetylcholine receptor M1” (Vanderbilt University, priority 2011, dated 2020).

This experiment addresses T1, mAChR M1 (UniProt P11229).
T1 sequence (P11229 1-460): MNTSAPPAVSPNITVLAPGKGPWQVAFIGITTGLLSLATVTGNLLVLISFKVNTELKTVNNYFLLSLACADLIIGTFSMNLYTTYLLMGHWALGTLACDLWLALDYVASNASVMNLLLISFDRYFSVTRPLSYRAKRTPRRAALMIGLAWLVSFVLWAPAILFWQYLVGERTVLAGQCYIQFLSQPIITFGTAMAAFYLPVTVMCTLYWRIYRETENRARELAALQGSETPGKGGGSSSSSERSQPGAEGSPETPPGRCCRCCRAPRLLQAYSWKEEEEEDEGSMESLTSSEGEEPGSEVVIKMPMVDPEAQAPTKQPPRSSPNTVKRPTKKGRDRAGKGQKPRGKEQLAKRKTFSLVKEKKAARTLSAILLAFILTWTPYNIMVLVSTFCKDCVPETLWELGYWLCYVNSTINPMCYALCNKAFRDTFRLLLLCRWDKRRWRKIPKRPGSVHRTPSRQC
Put plainly: mAChR M1 cell-based functional assay (calcium mobilization, potentiation of EC20 acetylcholine response). As to conditions: for Emax (%): % ACh maximum at 30 μM, mAChR M1-expressing CHO-K1 cells, calcium flux; for pEC50 / EC50: positive allosteric modulation of EC20 ACh response, mAChR M1 CHO-K1 cells; for pEC50: <5 estimated where no plateau; for EC50: >10 μM estimated where no plateau, read-out: EC50.

In general, pEC50 refers to the negative decadic logarithm of the EC50, by convention in mol/L. Usually EC50 stands for the midpoint of the concentration-response curve. As to `Cn1cc2cc(-c3cc(F)c(CN4Cc5ncccc5C4=O)cc3F)ccc2n1` [Example B105], the “Emax (%)” value is given as 69%, the pEC50 is recorded as 6.39 and the EC50 is 0.407 µM.

Regarding `Cn1ncc2c(-c3ccc(CN4Cc5ncccc5C4=O)c(F)c3)cccc21` [Example B29], the “Emax (%)” value is reported as 58%, the pEC50 was 5.80 and the EC50 is 1.59 µM.

With `O=C1c2cccnc2CN1Cc1ccc(-c2cccc3ncccc23)cc1F` [Example B42], the “Emax (%)” value was 41%, the negative-log EC50 (pEC50) was 5.44 and the EC50 was 3.63 µM.

On to `O=C1Cc2cc(-c3cc(F)c(CN4Cc5ncccc5C4=O)c(F)c3)ccc2N1` [Example B91], for which the “Emax (%)” value was found to be 67%, the pEC50 is recorded as 6.51 and the EC50 is 0.309 µM.

Take `O=C1c2cccnc2CN1Cc1ccc(-c2ccc3cncn3c2)cc1F` [Example B92]: the “Emax (%)” value is on record as 62%, the pEC50 is 6.06 and the EC50 was 0.871 µM.

With `O=C1c2ncccc2CN1Cc1ccc(-c2ccncc2)cc1Cl` [Example B68], the “Emax (%)” value came out at 56%, the negative-log EC50 (pEC50) is under 5.00 and the EC50 was over 10 µM.

As for `Cn1cc2c(n1)CCN(c1ccc(CN3Cc4ncccc4C3=O)c(F)c1)C2` [Example B112], the “Emax (%)” value is 32%, the pEC50 is under 5.00 and the EC50 is over 10 µM.

`Cn1cc2ccc(-c3ccc(F)c(CN4Cc5ncccc5C4=O)c3)cc2n1` [Example B108]: the “Emax (%)” value is listed as 56%, the pEC50 is recorded as 5.07 and the EC50 is 8.51 µM.

Regarding `O=S1(=O)c2ccccc2CN1Cc1ccc(-n2cccc2)cc1` [Example B125], the “Emax (%)” value was under 30%, the pEC50 is given as under 5.00 and the EC50 was over 10 µM.

As for `Cn1cc2cc(-c3ccc(F)c(CN4Cc5ncccc5C4=O)c3)ccc2n1` [Example B111], the “Emax (%)” value amounted to 42%, the pEC50 is reported as 5.63 and the EC50 was 2.34 µM.

`Cn1cc(-c2ccc(CN3Cc4cc(F)cc(F)c4C3=O)c(F)c2)cn1` [Example B7]: the “Emax (%)” value was 63%, the negative logarithm of the EC50 (pEC50) is 5.59 and the EC50 is 2.6 µM.

On to `O=C1c2cccnc2CN1Cc1ccc(-c2ccc3cnccc3c2)cc1F` [Example B44], for which the “Emax (%)” value is reported as 65%, the pEC50 is 6.04 and the EC50 is 0.912 µM.

`Cc1cc(-c2ccc(CN3Cc4cccnc4C3=O)c(F)c2)cnc1Cl` [Example B63]: the “Emax (%)” value is listed as 48%, the pEC50 was 5.73 and the EC50 was 1.86 µM.

As for `CSc1ncc(-c2ccc(CN3Cc4ccccc4C3=O)c(F)c2)cn1` [Example B122], the “Emax (%)” value is listed as under 30%, the pEC50 is on record as under 5.00 and the EC50 is over 10 µM.

Turning to `Cn1cc2cc(-c3ccc(CN4Cc5ncccc5C4=O)cc3)ccc2n1` [Example B59], the “Emax (%)” value was found to be 56%, the pEC50 is listed as 6.30 and the EC50 was 0.501 µM.

As for `Cn1cc2cc(-c3ccc(CN4Cc5ncccc5C4=O)c(F)c3)ccc2n1` [Example B1], the “Emax (%)” value stood at 82%, the pEC50 was 5.96 and the EC50 was 1.1 µM.

Take `O=C1c2cccnc2CN1Cc1c(F)cc(-c2cccc3nccn23)cc1F` [Example B89]: the “Emax (%)” value came out at 48%, the pEC50 is on record as under 5.00 and the EC50 is over 10 µM.

With `Cn1cc(-c2ccc(CN3Cc4ccccc4C3=O)nc2)cn1` [Example B15], the “Emax (%)” value is listed as 37%, the pEC50 is under 5.00 and the EC50 was over 10 µM.

Regarding `Cn1cc2cc(-c3ccc(CN4Cc5ccccc5S4(=O)=O)c(F)c3)ccc2n1` [Example B5], the “Emax (%)” value came out at 34%, the pEC50 is on record as 5.60 and the EC50 is 2.5 µM.

With `O=C1c2cccnc2CN1Cc1ccc(-c2ccnc(F)c2)cc1F` [Example B14], the “Emax (%)” value worked out at 36%, the pEC50 is on record as under 5.00 and the half-maximal effective concentration (EC50) was over 10 µM.

Turning to `O=C1c2cccnc2CN1Cc1ccc(-c2ccc3cc[nH]c3c2)cc1F` [Example B28], the “Emax (%)” value is on record as 34%, the pEC50 is under 5.00 and the EC50 was over 10 µM.

With `Cc1cc(-c2cnc(Cl)c(C)c2)ccc1CN1Cc2cccnc2C1=O` [Example B83], the “Emax (%)” value amounted to 34%, the pEC50 was under 5.00 and the EC50 was over 10 µM.

With `O=C1c2ncccc2CN1Cc1ccc(-c2ccc3cnccc3c2)cc1F` [Example B79], the “Emax (%)” value was 62%, the negative-log EC50 (pEC50) is listed as 5.83 and the EC50 was 1.48 µM.

`O=C1c2cccnc2CN1Cc1c(F)cc(-c2ccc3cncn3c2)cc1F` [Example B100]: the “Emax (%)” value is listed as 71%, the pEC50 is 5.88 and the EC50 is 1.32 µM.

As for `CC(c1ccc(-c2cnn(C)c2)cc1F)N1Cc2ccccc2C1=O` (stereo not drawn) [Example B13, 2-(1-(2-fluoro-4-(1-methyl-1H-pyrazol-4-yl)phenyl)ethyl)isoindolin-1-one], the “Emax (%)” value is 35%, the pEC50 is listed as under 5.00 and the half-maximal effective concentration (EC50) was over 10 µM.
